Measured values: paper doi:10.1101/2023.09.25.559386v1 (biorxiv, 2023)

How the values were obtained:
D1R [1] = biological target: T1, D1R (Homo sapiens, UniProt P21728); assay: radioligand competition binding, cell homogenates
D1R [2] = biological target: T1, D1R; assay: BRET Gs heterotrimer dissociation; type: cell-based

T1 sequence (P21728 whole entry): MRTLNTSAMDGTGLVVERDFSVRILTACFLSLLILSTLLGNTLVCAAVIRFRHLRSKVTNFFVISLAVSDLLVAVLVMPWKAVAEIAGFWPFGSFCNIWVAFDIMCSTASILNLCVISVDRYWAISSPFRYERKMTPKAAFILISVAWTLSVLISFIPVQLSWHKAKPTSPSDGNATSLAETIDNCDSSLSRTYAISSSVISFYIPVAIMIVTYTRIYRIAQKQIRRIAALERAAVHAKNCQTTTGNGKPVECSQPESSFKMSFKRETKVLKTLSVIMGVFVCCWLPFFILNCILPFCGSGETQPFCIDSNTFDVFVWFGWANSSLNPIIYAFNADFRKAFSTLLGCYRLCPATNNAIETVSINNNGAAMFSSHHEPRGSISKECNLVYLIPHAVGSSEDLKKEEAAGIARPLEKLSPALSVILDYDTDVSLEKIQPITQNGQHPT

Structure (SMILES)	Ki (D1R [1])	Kb (D1R [2])	pKi (D1R [1]; […] [3H]SCH-23390, […] min, room temperature)
COCC[N+]1=C(/C=C/C=C2N(CCCCCC(=O)NCCCS(=O)(=O)Nc3ccc(C4CN(C)CCc5cc(Cl)c(O)cc54)cc3)c3ccc(S(=O)(=O)[O-])cc3C2(C)CCCS(=O)(=O)O)C(C)(CCCS(=O)(=O)O)c2cc(S(=O)(=O)O)ccc21 (stereo not shown) [compound 24, (E)-1-(6-((3-(N-(4-(7-Chloro-8-hydroxy-3-methyl-2,3,4,5-tetrahydro-1H-benzo[d]azepin-1-yl)phenyl)sulfamoyl)propyl)amino)-6-oxohexyl)-2-((E)-3-(1-(2-methoxyethyl)-3-methyl-5-sulfo-3-(3-sulfopropyl)-3H-indol-1-ium-2-yl)allylidene)-3-methyl-3-(3-sulfopropyl)indoline-5-sulfonate]	10.2 nM		
COCC[N+]1=C(/C=C/C=C2N(CCCCCC(=O)NCCOCCn3cc(CNC(=O)CCCCS(=O)(=O)Nc4ccc(C5CN(C)CCc6cc(Cl)c(O)cc65)cc4)nn3)c3ccc(S(=O)(=O)[O-])cc3C2(C)CCCS(=O)(=O)O)C(C)(CCCS(=O)(=O)O)c2cc(S(=O)(=O)O)ccc21 (stereo not shown) [compound 26, 2-((E)-3-((E)-1-(6-((2-(2-(4-((5-(N-(4-(7-Chloro-8-hydroxy-3-methyl-2,3,4,5-tetrahydro-1H-benzo[d]azepin-1-yl)phenyl)sulfamoyl)pentanamido)methyl)-1H-1,2,3-triazol-1-yl)ethoxy)ethyl)amino)-6-oxohexyl)-3-methyl-5-sulfonato-3-(3-sulfonatopropyl)indolin-2-ylidene)prop-1-en-1-yl)-1-(2-methoxyethyl)-3-methyl-3-(3-sulfonatopropyl)-3H-indol-1-ium-5-sulfonate]	288 nM		
COCC[N+]1=C(/C=C/C=C2N(CCCCCC(=O)NCCOCCOCCn3cc(CNC(=O)CCCCS(=O)(=O)Nc4ccc(C5CN(C)CCc6cc(Cl)c(O)cc65)cc4)nn3)c3ccc(S(=O)(=O)[O-])cc3C2(C)CCCS(=O)(=O)O)C(C)(CCCS(=O)(=O)O)c2cc(S(=O)(=O)O)ccc21 (stereo not shown) [compound 28, 2-((E)-3-((E)-1-(6-((2-(2-(2-(4-((5-(N-(4-(7-Chloro-8-hydroxy-3-methyl-2,3,4,5-tetrahydro-1H-benzo[d]azepin-1-yl)phenyl)sulfamoyl)pentanamido)methyl)-1H-1,2,3-triazol-1-yl)ethoxy)ethoxy)ethyl)amino)-6-oxohexyl)-3-methyl-5-sulfonato-3-(3-sulfonatopropyl)indolin-2-ylidene)prop-1-en-1-yl)-1-(2-methoxyethyl)-3-methyl-3-(3-sulfonatopropyl)-3H-indol-1-ium-5-sulfonate]			6.85 ± 0.07

Now from value to compound:

Ki (D1R [1])	Kb (D1R [2])	pKi (D1R [1]; […] [3H]SCH-23390, […] min, room temperature)	Structure (SMILES)
398 nM			CN1CCc2cc(Cl)c(O)cc2C(c2ccc(NS(=O)(=O)CCCNC(=O)c3ccc(-c4c5ccc(N(C)C)cc5[o+]c5cc(N(C)C)ccc45)c(C(=O)[O-])c3)cc2)C1 (racemic) [compound 23, 5-((3-(N-(4-(7-Chloro-8-hydroxy-3-methyl-2,3,4,5-tetrahydro-1H-benzo[d]azepin-1-yl)phenyl)sulfamoyl)propyl)carbamoyl)-2-(6-(dimethylamino)-3-(dimethyliminio)-3H-xanthen-9-yl)benzoate]
4.57 nM	51.3 nM		CN1CCc2cc(Cl)c(O)cc2C(c2ccc(NS(=O)(=O)CCCCC(=O)NCc3cn(CCOCCNC(=O)c4ccc(-c5c6ccc(N(C)C)cc6[o+]c6cc(N(C)C)ccc56)c(C(=O)[O-])c4)nn3)cc2)C1 (racemic) [compound 25, 2-(3,6-Bis(dimethylamino)xanthylium-9-yl)-5-((2-(2-(4-((5-(N-(4-(7-chloro-8-hydroxy-3-methyl-2,3,4,5-tetrahydro-1H-benzo[d]azepin-1-yl)phenyl)sulfamoyl)pentanamido)methyl)-1H-1,2,3-triazol-1-yl)ethoxy)ethyl)carbamoyl)benzoate]
9.55 nM			CN1CCc2cc(Cl)c(O)cc2C(c2ccc(NS(=O)(=O)CCCCC(=O)NCc3cn(CCOCCOCCNC(=O)c4ccc(-c5c6ccc(N(C)C)cc6[o+]c6cc(N(C)C)ccc56)c(C(=O)[O-])c4)nn3)cc2)C1 (racemic) [compound 27, 2-(3,6-Bis(dimethylamino)xanthylium-9-yl)-5-((2-(2-(2-(4-((5-(N-(4-(7-chloro-8-hydroxy-3-methyl-2,3,4,5-tetrahydro-1H-benzo[d]azepin-1-yl)phenyl)sulfamoyl)pentanamido)methyl)-1H-1,2,3-triazol-1-yl)ethoxy)ethoxy)ethyl)carbamoyl)benzoate]
